Laboratory results from paper PMC3384716 (Steroids, 2012).

Assays:
[1] = target: T1, ER (Homo sapiens, UniProt P03372); experiment: ER reporter gene assay; format: cell-based; settings: for inhibition of ER transactivation (in words) / Reporter Assay (% Activity) ER: 10 μM compound; for Reporter Assay (% Activity) ER: 5 nM estradiol, 24 h, % of maximal luciferase activity (100%)
T1 sequence (P03372 1-595): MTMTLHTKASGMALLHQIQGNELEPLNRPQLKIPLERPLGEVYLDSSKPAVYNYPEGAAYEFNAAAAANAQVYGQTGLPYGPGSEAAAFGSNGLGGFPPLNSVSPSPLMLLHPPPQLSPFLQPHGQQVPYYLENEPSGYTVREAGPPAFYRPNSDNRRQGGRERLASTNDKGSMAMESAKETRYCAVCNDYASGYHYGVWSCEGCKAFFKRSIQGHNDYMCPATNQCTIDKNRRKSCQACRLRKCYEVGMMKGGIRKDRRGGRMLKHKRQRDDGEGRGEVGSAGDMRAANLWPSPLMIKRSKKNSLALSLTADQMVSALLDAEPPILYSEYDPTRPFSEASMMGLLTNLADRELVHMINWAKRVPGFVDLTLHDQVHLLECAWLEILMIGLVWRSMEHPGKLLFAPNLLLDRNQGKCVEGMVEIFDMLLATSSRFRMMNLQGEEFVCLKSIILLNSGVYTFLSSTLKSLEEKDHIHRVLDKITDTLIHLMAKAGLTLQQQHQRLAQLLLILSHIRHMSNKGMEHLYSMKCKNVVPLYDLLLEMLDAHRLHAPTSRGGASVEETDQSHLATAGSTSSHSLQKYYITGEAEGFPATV

[2] = target: T2, PR (Homo sapiens, UniProt P06401); experiment: PR reporter gene assay; format: cell-based; settings: for inhibition of PR transactivation (in words): 10 μM compound
T2 sequence (P06401 165-933 limits assumed): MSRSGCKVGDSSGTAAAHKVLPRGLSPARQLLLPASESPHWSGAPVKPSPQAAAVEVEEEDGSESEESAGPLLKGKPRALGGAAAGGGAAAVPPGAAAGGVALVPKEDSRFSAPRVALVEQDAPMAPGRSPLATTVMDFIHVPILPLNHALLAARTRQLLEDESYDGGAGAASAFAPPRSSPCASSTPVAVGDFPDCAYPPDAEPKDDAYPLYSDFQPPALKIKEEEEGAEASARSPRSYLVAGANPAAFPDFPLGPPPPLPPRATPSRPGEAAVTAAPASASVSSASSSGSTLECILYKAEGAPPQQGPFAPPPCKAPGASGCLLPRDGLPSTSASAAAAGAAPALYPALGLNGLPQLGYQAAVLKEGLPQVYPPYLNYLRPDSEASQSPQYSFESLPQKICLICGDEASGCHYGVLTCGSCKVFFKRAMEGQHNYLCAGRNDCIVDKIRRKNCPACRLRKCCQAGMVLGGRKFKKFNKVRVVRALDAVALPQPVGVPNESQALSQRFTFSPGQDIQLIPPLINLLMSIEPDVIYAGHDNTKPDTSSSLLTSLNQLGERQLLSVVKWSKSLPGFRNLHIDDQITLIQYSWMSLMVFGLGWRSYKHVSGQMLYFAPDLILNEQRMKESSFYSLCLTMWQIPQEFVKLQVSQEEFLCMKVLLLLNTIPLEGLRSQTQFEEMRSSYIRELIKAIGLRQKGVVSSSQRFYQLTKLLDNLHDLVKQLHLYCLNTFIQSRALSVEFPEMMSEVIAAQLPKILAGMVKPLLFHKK

[3] = target: T3, GR (Rattus norvegicus, UniProt P06536); experiment: GR reporter gene assay; format: cell-based, human; settings: 10 μM compound
T3 sequence (P06536 1-795): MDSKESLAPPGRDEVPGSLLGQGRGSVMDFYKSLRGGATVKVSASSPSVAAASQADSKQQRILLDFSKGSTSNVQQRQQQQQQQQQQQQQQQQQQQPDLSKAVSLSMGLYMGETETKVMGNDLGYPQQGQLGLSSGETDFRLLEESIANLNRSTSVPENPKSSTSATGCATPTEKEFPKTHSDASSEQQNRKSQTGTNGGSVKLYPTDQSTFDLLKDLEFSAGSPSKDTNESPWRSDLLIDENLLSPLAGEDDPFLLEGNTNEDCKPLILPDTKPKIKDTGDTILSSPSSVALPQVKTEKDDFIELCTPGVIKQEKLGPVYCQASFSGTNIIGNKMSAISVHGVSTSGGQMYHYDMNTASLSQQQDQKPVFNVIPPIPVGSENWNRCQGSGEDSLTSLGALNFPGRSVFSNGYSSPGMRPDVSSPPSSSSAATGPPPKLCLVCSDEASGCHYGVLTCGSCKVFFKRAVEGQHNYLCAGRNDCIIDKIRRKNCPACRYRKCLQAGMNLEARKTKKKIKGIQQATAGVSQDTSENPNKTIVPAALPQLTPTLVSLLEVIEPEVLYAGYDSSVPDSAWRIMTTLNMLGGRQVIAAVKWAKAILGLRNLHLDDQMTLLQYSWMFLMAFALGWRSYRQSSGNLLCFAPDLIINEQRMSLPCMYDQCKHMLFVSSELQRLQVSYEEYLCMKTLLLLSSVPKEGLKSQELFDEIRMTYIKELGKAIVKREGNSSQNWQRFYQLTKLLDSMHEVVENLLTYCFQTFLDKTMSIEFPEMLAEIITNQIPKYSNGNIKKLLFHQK

[4] = target: T4, AR (Homo sapiens, UniProt P10275); experiment: AR reporter gene assay; format: cell-based; settings: 10 μM compound
T4 sequence (P10275 1-920): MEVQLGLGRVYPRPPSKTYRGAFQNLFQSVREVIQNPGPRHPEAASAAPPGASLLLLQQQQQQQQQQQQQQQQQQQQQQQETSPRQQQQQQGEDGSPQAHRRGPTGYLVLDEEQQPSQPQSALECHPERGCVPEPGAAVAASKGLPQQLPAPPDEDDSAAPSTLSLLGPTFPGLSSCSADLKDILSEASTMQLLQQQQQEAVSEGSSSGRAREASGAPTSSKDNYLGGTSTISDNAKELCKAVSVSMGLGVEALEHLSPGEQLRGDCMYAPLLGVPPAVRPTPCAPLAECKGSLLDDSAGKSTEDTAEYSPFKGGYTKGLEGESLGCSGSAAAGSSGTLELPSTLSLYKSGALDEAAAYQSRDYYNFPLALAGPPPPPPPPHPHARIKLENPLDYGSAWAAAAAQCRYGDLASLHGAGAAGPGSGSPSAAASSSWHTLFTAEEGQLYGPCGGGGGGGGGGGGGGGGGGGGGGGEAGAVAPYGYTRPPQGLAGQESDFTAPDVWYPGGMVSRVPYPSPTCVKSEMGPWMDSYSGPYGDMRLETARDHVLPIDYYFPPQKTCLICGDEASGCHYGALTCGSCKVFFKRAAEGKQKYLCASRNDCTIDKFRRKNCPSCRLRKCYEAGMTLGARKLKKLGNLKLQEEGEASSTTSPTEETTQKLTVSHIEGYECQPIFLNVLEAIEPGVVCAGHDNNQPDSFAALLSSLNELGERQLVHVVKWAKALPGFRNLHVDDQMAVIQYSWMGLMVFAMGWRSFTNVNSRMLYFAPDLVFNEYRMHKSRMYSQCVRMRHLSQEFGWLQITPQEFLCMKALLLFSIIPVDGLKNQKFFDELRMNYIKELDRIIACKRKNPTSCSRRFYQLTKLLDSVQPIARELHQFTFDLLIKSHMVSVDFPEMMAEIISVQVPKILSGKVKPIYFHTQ

[5] = system: pS2 mRNA; experiment: qRT-PCR of 17β-estradiol-induced pS2 mRNA; format: cell-based; settings: 2 hours; compound 51 at 5 μM

Row | Reporter Assay (% Activity) ER [1] [%] | Structure (SMILES) | other results
1 | – | Cn1c(=O)c2[nH]cnc2n(C)c1=O [Compound 1, Theophylline, reference compound] | inhibition of ER transactivation (in words) [1]: did not inhibit; activity at 10 µM ([1]; read-out: Reporter Assay (% Activity) ER): 93%; inhibition of PR transactivation (in words) [2]: did not inhibit; activity at 10 µM ([2]; T47D, read-out: Reporter Assay (% Activity) PR): 105%
2 | 106 | CCc1nc2c([nH]1)c(=O)n(C)c(=O)n2C [Compound 2] | –
3 | 88 | CCCCc1nc2c([nH]1)c(=O)n(C)c(=O)n2C [Compound 3] | –
4 | 94 | Cn1c(=O)c2[nH]c(Cc3ccccc3)nc2n(C)c1=O [Compound 4] | –
5 | 111 | CCCSc1nc2c([nH]1)c(=O)n(C)c(=O)n2C [Compound 7] | –
6 | 104 | Cn1c(=O)c2[nH]c(SCc3ccccc3)nc2n(C)c1=O [Compound 8] | –
7 | 6 | CSc1nc2c([nH]1)c(=O)n(C)c(=O)n2C [Compound 10] | –
8 | 101 | CSc1nc2c([nH]1)c(=S)n(C)c(=S)n2C [Compound 13] | –
9 | 79 | CCCSc1nc2c([nH]1)c(=S)n(C)c(=S)n2C [Compound 19] | –
10 | 109 | CCCCCCCCCCSc1nc2c([nH]1)c(=O)n(C)c(=O)n2C [Compound 37] | –
11 | – | C[C@]12CC[C@@H]3c4ccc(O)cc4C[C@@H](CCCCCCCCC[S+]([O-])CCCC(F)(F)C(F)(F)F)[C@H]3[C@@H]1CC[C@@H]2O (stereo partly shown) [ICI 182,780, reference compound] | effect on 17β-estradiol induction of pS2 mRNA [5]: inhibited induction of pS2 mRNA

Row | Structure (SMILES) | Reporter Assay (% Activity) ER [1] [%] | other results
12 | CCCC(C)Sc1nc2c([nH]1)c(=S)n(C)c(=O)n2C (stereo not shown) [Compound 45] | 94 | inhibition of GR transactivation (in words) [3]: no activity; inhibition of AR transactivation (in words) [4]: no activity; inhibition of ER transactivation (in words) [1]: no activity; inhibition of PR transactivation (in words) [2]: moderately potent inhibitors
